Results on five molecules are retold here after PMC4186413, “Identification of metabolic pathways and enzyme systems involved in the in vitro human hepatic metabolism of dronedarone, a potent new oral antiarrhythmic drug” (Pharmacology Research & Perspectives, 2014).

Data set [1] deals with CYP1A1, -1A2, -2A6, -2B6, -C8, -2C9, -2C18, -2C19, -2D6, -2E1, -3A4, and -3A5. Nature of the data set: Oxidation by the panel of recombinant human CYP isoforms. The class given is in vitro ADME. The following applies: 100 pmol/mL, 5 μmol/L, 30 min, NADPH; for Oxidation by the other CYP isoforms of the panel: isoforms other than those named for the drug. An excerpt:
Recombinant human CYPs (Supersomes™; BD Gentes, Woburn, MA: CYP1A1, CYP1A2, CYP2A6, CYP2B6, CYP2C8, CYP2C9, CYP2C18, CYP2C19, CYP2D6, CYP2E1, CYP3A4 and CYP3A5), FMOs (Supersomes™: FMO1, FMO3, FMO5), MAOs (Supersomes™: MAO-A and MAO-B), and UGTs (Supersomes™: UGT1A1, UGT1A3, UGT1A4, UGT1A6, UGT1A7, UGT1A8, UGT1A9, UGT1A10, UGT2B4, UGT2B7, UGT2B15, and UGT2B17) expressed in baculovirus-infected insect cells and control microsomes from insect cells infected with wild-type baculovirus were all obtained from BD Gentest (Woburn, MA).
For oxidative pathways, the assay mixture was composed of human liver microsomes (1 mg·m·L^−1) or microsomes of baculovirus-infected cells expressing human enzymes (100 pmol·mL^−1 for CYPs and 1 mg·mL^−1 for FMOs and MAOs), nicotinamide adenine dinucleotide phosphate reduced form (NADPH) (1 mmol/L), 100 mmol/L potassium phosphate (pH 7.4), and 5 μmol/L of the investigated compound dissolved in DMSO in a final volume of 500 μL.
The final concentration of DMSO in the reaction mixture was less than 1% (v/v). Initial rate conditions with respect to time and protein concentration for both the disappearance of unchanged drug and the formation of respective metabolites were established in preliminary studies. The enzyme reaction was initiated by addition of NADPH (10 mmol/L aqueous solution) to achieve a final concentration of 1 mmol/L for oxidative CYP- and FMO-dependent reactions or by the drug for MAO-dependent reactions, incubated at 37°C and stopped after 0–30 min by addition of one volume of ice-cold acetonitrile.
In human liver microsomes and recombinant isoforms, the percentage of metabolism was determined on the basis of unchanged drug disappearance, using the following equation [drawing 1] where UDt = 30 min represents the unchanged drug peak area after a 30-min incubation period and UDt = 0, the unchanged drug peak area at t = 0.
To identify the specific isoforms that are capable of oxidizing dronedarone and its metabolites, assays were performed using c-DNA-expressed isoforms belonging to CYP- (CYP1A1, -1A2, -2A6, -2B6, -C8, -2C9, -2C18, -2C19, -2D6, -2E1, -3A4, and -3A5), FMO- (FMO-1, -3, and -5) and MAO- (MAO-A and MAO-B) families.
Figure 5 Contribution of individual CYPs, FMOs and MAOs to the oxidation of dronedarone and its metabolites. Individual CYPs (100 pmol/mL), FMOs (1 mg/mL) and MAOs (1 mg/mL) were incubated with either dronedarone (A) or its metabolites, N-debutyl-dronedarone (B), propanoic acid-dronedarone (C), and phenol-dronedarone (D), at a concentration of 5 μmol/L, for 30 min at 37°C in the presence of NADPH, except for MAOs where incubations were performed in the absence of cofactor. Unchanged drugs were quantified by LC/MS-MS relative to the synthetic references as described in Materials and Methods. Data are expressed as the percentage of oxidation.

In another data set the test system is CYP3A4. As to the kind of experiment: Contribution of CYP3A4 to hepatocyte clearance (ketoconazole inhibitory effect). The following applies: for Effect of ketoconazole on metabolism in hepatocytes: 5 μmol/L drug; for fm CYP3A4, Mean ± SD: mean of hepatocyte preparations. The data set is classed as in vitro ADME, human. The protocol: Experiments were performed in 48-well plastic plates coated with rat tail Collagen type I. Plates were seeded with 0.16 × 10^5 hepatocytes per well in a final volume of 0.2 mL and incubated at 37°C under a 95% humidified air and 5% CO2 atmosphere. After 3 h during which cells were allowed to attach, the medium was renewed with 0.1 mL serum-free medium. Then, the investigated drug or metabolic probe(s) were added directly to the incubation medium in the absence or the presence of inhibitors such as either ketoconazole as a specific and potent CYP3A inhibitor (3 μmol/L final concentration), clorgyline (0.25 μmol/L final concentration) as a potent MAO-A inhibitor or ABT as a potent but nonselective CYP isoforms inhibitor (1 mmol/L final concentration) (Fabre et al. [1988]; Bourrié et al. [1996]; Klieber et al. [2008]). Regardless of the final concentration investigated, the final solvent (DMSO) concentration never exceeded 0.2% (v/v).
To determine the metabolism of the different compounds (metabolic probes, dronedarone, N-debutyl-dronedarone, propanoic acid-dronedarone, phenol-dronedarone, and C-dealkyl-dronedarone), kinetic studies were performed over 0–24 h. For each time point, 0.1 mL of acetonitrile was added to the specific well for protein precipitation, and both extracellular medium and the cell fraction were scraped together. Cell extracts were transferred to a glass tube and stored at −20°C until analysis. Before analysis, cell homogenates were sonicated for a few seconds, homogenized and centrifuged at 6000 g for 10 min. Supernatant fluids were then analyzed for the different drugs and their specific metabolites.
The fraction metabolized (fm) by MAO, CYP3A or total CYPs was determined using the following equation: [drawing 3] where: kei is the elimination rate constant (expressed in h^−1) in the presence of the inhibitor.
The kinetics of drug disappearance were investigated using four different cryopreserved human hepatocyte preparations in primary cultures following incubation with either dronedarone or its metabolites at a concentration of 5 μmol/L. Incubations were performed either in the absence, that is control conditions, or in the presence of enzyme system inhibitors such as 3 μmol/L ketoconazole (specific and potent inhibitor of CYP3A4/5), 1 mmol/L ABT (a potent and […] inhibitor of total CYPs), or 0.25 μmol/L clorgyline (a potent MAO-A inhibitor) (Dorris [1982]). Kinetic studies were performed over 24 h.

`CCCCNCCCOc1ccc(C(=O)c2c(CCCC)oc3ccc(NS(C)(=O)=O)cc23)cc1` [N-debutyl-dronedarone]: in data set [1], the “Oxidation by the other CYP isoforms of the panel” value (“Oxidation” for short) is recorded as “Neither other CYPs nor FMOs metabolized N-debutyl-dronedarone to any significant extent”. Also, the “Effect of ketoconazole on metabolism in hepatocytes” value (“Effect of ketoconazole” below) in the data set with CYP3A4 (3 μmol/L ketoconazole) is “no inhibitory effect”. For the same molecule, the “fm CYP3A4” value with CYP3A4 (BD-91, 3 μmol/L ketoconazole) amounted to 7%; with CYP3A4 (BD-296, 3 μmol/L ketoconazole), 4%; in the data set on CYP3A4 (HU-1358, 3 μmol/L ketoconazole), 8%; with CYP3A4 (IVT-IBG, 3 μmol/L ketoconazole) it was 0%. Besides, the “fm CYP3A4, Mean ± SD” value with CYP3A4 (3 μmol/L ketoconazole) is 5 ± 3%.
For the molecule `CCCCN(CCCC)CCCOc1ccc(C(=O)O)cc1` [C-dealkyl-dronedarone], the “Metabolism by any of the different CYPs” value in data set [1] was “not metabolized”. In addition, the “Effect of ketoconazole” value with CYP3A4 (3 μmol/L ketoconazole) is reported as “no effect”.
For the molecule `CCCCc1oc2ccc(NS(C)(=O)=O)cc2c1C(=O)c1ccc(O)cc1` [Phenol-dronedarone], the “Oxidation” value in data set [1] is “contributed to a very small extent”. In addition, in the data set with CYP3A4 (3 μmol/L ketoconazole), the “Effect of ketoconazole” value is on record as “did not contribute”.
Regarding `CCCCc1oc2ccc(NS(C)(=O)=O)cc2c1C(=O)c1ccc(OCCC(=O)O)cc1` [Propanoic acid-dronedarone], the “Oxidation” value in data set [1] was “Neither other CYPs, nor FMOs and MAOs metabolized propanoic acid-dronedarone to any significant extent”. Further, the “Effect of ketoconazole” value with CYP3A4 (3 μmol/L ketoconazole) is reported as “very minor inhibitory effect”. Also, the “fm CYP3A4” value worked out at 36% with CYP3A4 (BD-91, 3 μmol/L ketoconazole); 41% in the data set on CYP3A4 (BD-296, 3 μmol/L ketoconazole); 33% in the data set on CYP3A4 (HU-1358, 3 μmol/L ketoconazole); 34% in the data set on CYP3A4 (IVT-IBG, 3 μmol/L ketoconazole). Besides, in the data set on CYP3A4 (3 μmol/L ketoconazole), the “fm CYP3A4, Mean ± SD” value came out at 36 ± 3%.
With `CCCCc1oc2ccc(NS(C)(=O)=O)cc2c1C(=O)c1ccc(OCCCN(CCCC)CCCC)cc1.Cl` [Dronedarone, N-(2-Butyl-3-(4-(3-(dibutylamino)propoxy)benzoyl)-5-benzofuranyl)methanesulfonamide, hydrochloride], in data set [1], the “Oxidation” value is listed as “less than 15%”. The “Effect of ketoconazole” value in the data set on CYP3A4 (3 μmol/L ketoconazole) is “predominant inhibitory effect”. For the same molecule, the “fm CYP3A4” value is recorded as 95% with CYP3A4 (BD-91, 3 μmol/L ketoconazole); 95% with CYP3A4 (BD-296, 3 μmol/L ketoconazole); 84% with CYP3A4 (HU-1358, 3 μmol/L ketoconazole); 80% with CYP3A4 (IVT-IBG, 3 μmol/L ketoconazole). Besides, the “fm CYP3A4, Mean ± SD” value in the data set on CYP3A4 (3 μmol/L ketoconazole) is given as 89 ± 7%.
